Here are results for seven compounds from patent US5550121A, “Aminoalkylpyrrolidinylthiocarbapenem derivatives” (priority 1991, dated 1996).

In one data set the test system is P. aeruginosa MB5002. Briefly: in vitro antibacterial activity by agar plate dilution method (MIC). The data set is classed as cell-based. The following applies: Pseudomonas aeruginosa, read-out: Minimum Inhibitory Concentration (MIC). The protocol:
(§1) One platinum loopful of each test microorganism incubated overnight in Mueller Hinton broth, was inoculated to Mueller Hinton agar (inoculum size: 10^6 CFU/ml). Such culture media contained antibacterial agents in various concentrations. After incubation at 37° C. for 16 hours, the minimum inhibitory concentrations (MIC: μg/ml) were measured.
(§2) The minimum inhibitory concentrations and the DHP-I susceptibility of the compounds of the present invention were compared with imipenem and the compound of REFERENCE EXAMPLE 13.

The test system of a further data set is P. aeruginosa MB5178. The data set is described as above. The data set is classed as cell-based. The conditions noted are these: Pseudomonas aeruginosa, MB5178, 16 h, read-out: Minimum Inhibitory Concentration (MIC). The protocol: as §1, §2
Data set [1] can be described thus: Pharmacokinetics in mice after s.c. dosing, bioassay of plasma and urine. The following applies: mouse, sc, 20 mg/kg; for AUC / Cmax / Tmax / half-life: plasma; for dose excreted at 6 h: urine. The protocol: Pharmacokinetics in mice: Groups of three 20 g ddY male mice were given a single dose of 20 mg/kg of the compound of EXAMPLE 19 and imipenem by sc route. One group of three mice was placed in a metabolism cage designed to collect the urine free from fecal contamination. At a specified time after dosing, blood and urine samples were collected from a group for bioassay. The plasma was collected from the pooled blood after centrifugation. Microbiological assays: Bioactivity in the specimens was measured was by the standard disk diffusion procedure using Bacillus subtilis ATCC12432 as a test organism.

Data set [2] has as its system renal dehydropeptidase I (DHP-I). As to the kind of experiment: DHP-I susceptibility (method by Kropp et al.), ratio to imipenem. The conditions noted are these: ratio to imipenem (=1.0); the smaller the value, the higher the stability. The class given is in vitro ADME.
Description: Further, the DHP-I susceptibility was quantitatively analyzed by the method by Kropp et al., Antimicrob. Agents Chemother., vol. 22, p. 62-70 (1982), whereby the smaller the numerical value representing the ratio to imipenem (=1.0), the higher the stability.
as §2

Data set [3] has as its system various gram positive bacteria and gram negative bacteria. The conditions noted are these: cited from earlier work.
For data set [4] the following is noted: imipenem compared with thienamycin; cited from earlier work.
The subject of the next data set is Pseudomonas aeruginosa. The following applies: superior to thienamycin; cited from earlier work.
Data set [5] concerns renal dehydropeptidase I (DHP-I). The following applies: cited from earlier work.
For data set [6] the following is noted: due to the decomposition products; cited from earlier work.
Data set [7] relates to highly methicillin resistant Staphylococcus aureus which is resistant to imipenem and imipenem resistant Pseudomonas aeruginosa. The following applies: clinical field; cited from earlier work.
For data set [8] the following is noted: in vivo; cited from earlier work.
The mark [9] stands for this setting: P. aeruginosa MB5002, Mueller Hinton agar, inoculum 10^6 CFU/ml, 37° C., 16 hours.
Where [10] appears, read: P. aeruginosa MB5178, Mueller Hinton agar, inoculum 10^6 CFU/ml, 37° C., 16 hours.

Structures are written as SMILES. Converted amounts (≈) assume the structure as drawn. Read-outs that look alike come from different tables or passages of the source.

For `CC(CN)C[C@@H]1C[C@H](SC2=C(C(=O)O)N3C(=O)[C@H]([C@@H](C)O)[C@H]3[C@H]2C)CN1` (single isomer, unassigned) [Example 7], the MIC in the data set on P. aeruginosa MB5002 (setting [9]) is 0.78 µg/mL (≈ 2.03 µM).
As for `C[C@@H](O)[C@H]1C(=O)N2C(C(=O)O)=C(S[C@@H]3CN[C@H](C(O)CCN)C3)[C@H](C)[C@H]12` (single isomer, unassigned) [Example 9], the MIC turned out to be 0.78 µg/mL (≈ 2.02 µM) with P. aeruginosa MB5002 (setting [9]) and 1.56 µg/mL (≈ 4.05 µM) with P. aeruginosa MB5178 (setting [10]).
For `C[C@@H](O)[C@H]1C(=O)N2C(C(=O)O)=C(S[C@@H]3CN[C@H](C(O)CN)C3)[C@H](C)[C@H]12` (single isomer, unassigned) [Example 13] the same measures were 1.56 µg/mL (≈ 4.2 µM) and 3.13 µg/mL (≈ 8.43 µM).
The term AUC denotes the area under the concentration-time curve, a measure of exposure. The Cmax is the peak of the concentration-time curve. By Tmax is commonly meant the time from dosing to the highest level. One may read the half-life as the time needed for the level to fall by half in the phase considered. Read a high half-life as slow loss. With `CNCC[C@@H](O)[C@@H]1C[C@H](SC2=C(C(=O)O)N3C(=O)[C@H]([C@@H](C)O)[C@H]3[C@H]2C)CN1` [Example 19], in data set [1], the AUC came out at 13800 ng·h/mL, the concentration peaked (Cmax) at 29000 ng/mL, the Tmax came out at 10.8 min and the half-life was 7.8 min. Further, in data set [1], the dose excreted at 6 h was 62.5%.
As to `C[C@@H](O)[C@H]1C(=O)N2C(C(=O)O)=C(SCCN=CN)C[C@H]12` [Imipenem, (5R,6S,8R)-3-[[2-(formimidoylamino)ethyl]thio]-6-(1-hydroxyethyl)-7-oxo-1-azabicyclo[3.2.0]hept-2-en-2-carboxylic acid monohydrate], in the data set with P. aeruginosa MB5002 (MB5002, 16 h), the MIC turned out to be 1.56 µg/mL. Moreover, the MIC in the data set with P. aeruginosa MB5178 is 25 µg/mL. In addition, the DHP-I susceptibility in data set [2] was 1.0. In data set [1], the AUC came to 9500 ng·h/mL, the Cmax was 21500 ng/mL, the Tmax was found to be 10.8 min and the half-life was 7.2 min. In data set [1], this compound registered a dose excreted at 6 h of 21.5%. In addition, the “antibacterial activities compared with thienamycin” value in [3] (various types of bacteria) is reported as “equal or higher level than thienamycin”. Also, the “stability in the solid form or in an aqueous solution” value in data set [4] is recorded as “remarkably improved over thienamycin”. The “antibacterial activities compared with thienamycin” value in the data set on Pseudomonas aeruginosa is 2 to 4 times. Further, the “decomposition by DHP-I” value in [5] is on record as “likely to be decomposed by DHP-I in the human kidney”. The “toxicity against the kidney” value in data set [6] is “presents toxicity against the kidney due to the decomposition products”. The “treating effects against resistant bacteria” value in data set [7] was “does not show adequate treating effects”.
In the case of `CC(=O)NC[C@@H]1C[C@H](SC2=C(C(=O)O)N3C(=O)[C@H]([C@@H](C)O)[C@H]3[C@H]2C)CN1` [compound 13, (1R,5S,6S)-2-[(2S,4S)-2-(Acetylaminomethyl)pyrrolidin-4-ylthio]-6-[(1R)-1-hydroxyethyl]-1-methyl-1-carbapen-2-em-3-carboxylic Acid], the MIC in the data set on P. aeruginosa MB5002 (setting [9]) amounted to 6.25 µg/mL (≈ 16.3 µM); with P. aeruginosa MB5178 (setting [10]), 12.5 µg/mL (≈ 32.6 µM). Moreover, the DHP-I susceptibility in data set [2] was 0.7.
Take `C[C@@H](O)[C@H]1C(=O)N2C(C(=O)O)=C(SCCN)C[C@H]12` [thienamycin]: the antibacterial activities result in data set [3] (statement in words, prior art) is “strong antibacterial activities over a wide range against gram positive bacteria and gram negative bacteria”. Besides, the “decomposition by DHP-I” value in [5] is reported as “likely to be decomposed”. For the same compound, the “recovery rate in the urine” value in data set [8] is reported as “low”.
